Measurements: patent US12433877B2, “Sustained release drug delivery systems and related methods” (Durect Corporation, priority 2021, dated 2025)
Counter-ions that a name gives are not always drawn.

Columns and labels:
[1] = test system: patients undergoing elective arthroscopic shoulder surgery; assay: Example 1 / Study 1: pain intensity and opioid rescue after arthroscopic shoulder surgery; type: in vivo, human; details: ITT, HCl
[2] = test system: pregnant rabbits; assay: Embryo-fetal development study, subcutaneous, rabbits; type: in vivo
Description: (§1) There are no studies conducted with Formulation A in pregnant women. […] Based on animal data, advise pregnant women of the potential risks to a fetus. [see Data]
Bupivacaine hydrochloride was administered subcutaneously to rats at doses of 4.4, 13.3, & 40 mg/kg and to rabbits at doses of 1.3, 5.8, & 22.2 mg/kg during the period of organogenesis (implantation to closure of the hard palate). The high doses are approximately 0.6 times the daily maximum recommended human dose (MRHD) of 660 mg/day on a mg/m^2 body surface area (BSA) basis.

[3] = test system: rats; assay: Rat pre- and post-natal development study; type: in vivo; details: 40 mg/kg subcutaneous, implantation through weaning
Description: as §1
The high dose is approximately 0.6 times the daily MRHD of 660 mg/day on a BSA basis.

[4] = test system: patients undergoing a variety of general surgical procedures; assay: Example 18: safety, Holter monitoring; type: in vivo, human
Source text: Patient safety was carefully monitored throughout the trial with traditional assessments of AEs, vital signs, routine laboratory testing, and Holter monitoring (i.e., continuous recording of electrocardiogram) for 3 days after dosing. Special attention was given to cardiovascular and neurological AE, as bupivacaine toxic effects are manifest in those two body systems. In addition, special assessments were done to monitor surgical wound condition and healing over the 30 days of the trial. There were no consistent treatment-related effects on vital signs. Changes in serum chemistry and hematological parameters were those expected after major surgery, with few consistent differences between treatment groups. Cardiac safety was carefully studied using Holter monitoring for 72 hours post-dose, starting about one hour before surgery. In addition, baseline 24-hour ambulatory Holter monitoring was done after the screening visit.

[5] = test system: patients undergoing elective arthroscopic shoulder surgery; assay: Example 1 / Study 1: adverse events and 6-month follow-up safety; type: in vivo, human
Source text: The incidence of adverse events (AEs); the incidence of bupivacaine-related CNS side effects; clinical laboratory tests; vital signs; 12-lead ECGs; and physical examinations.
Evaluation by the investigator of wound healing and tissue conditions at the surgical wound on Days 7 and 14, and at the 6-month follow-up visit. An MRI of the shoulder as well as a functionality assessment of the shoulder using the Constant-Murley score were to be performed at the 6-month follow-up visit.
There were three studies evaluating the safety of Formulation A administered during shoulder surgery. […]
Additional follow-up safety data consisting of shoulder MRI, physical examination of the shoulder, and assessments of wound healing were collected at 6 months in Study 1 and at 18 months in Study 2. […]

[6] = Example 18: plasma pharmacokinetics by cohort; type: in vivo, human; details: Cohort 2; total bupivacaine in plasma
Description: Plasma PK samples were analyzed for determination of total bupivacaine concentration only and none of the samples were analyzed for determination of free drug concentration.

Compound: CCCCN1CCCCC1C(=O)Nc1c(C)cccc1C (centres unmarked) [Bupivacaine HCl]
- Total IV morphine equivalent dose of opioid rescue medication, median ([1]; 0-72 hours after surgery): 8.0 mg
- Time to first use of opioid rescue medication, median (95% CI) ([1]; Kaplan-Meier): 1.4 (1.0, 4.1) hours
- Embryo-fetal deaths at the high dose ([2]; 22.2 mg/kg subcutaneous, organogenesis, rabbits): An increase in embryo-fetal deaths was observed
- Fetal No Observed Adverse Effect Level ([2]; female, rabbit, in vivo): approximately 0.2 times the MRHD
- Pup survival at the high dose [3]: decreased pup survival was observed
- At Least One Cardiovascular TEAE ([4]; Cohort 1, % of subjects): (39%)
- At Least One Neurological TEAE ([4]; Cohort 1, % of subjects): (22%)
- At Least One Non-Opioid TEAE ([4]; Cohort 1, % of subjects): (94%)
- At Least One Serious TEAE ([4]; Cohort 1, % of subjects): (22%)
- At Least One TEAE ([4]; Cohort 1, % of subjects): (94%)
- At Least One Wound Infection TEAE ([4]; Cohort 1, % of subjects): (11%)
- Maximum Relationship to Study Drug: Not Related ([4]; Cohort 1, % of subjects): (72%)
- Maximum Relationship to Study Drug: Related ([4]; Cohort 1, % of subjects): (22%)
- Maximum Severity: Mild ([4]; Cohort 1, % of subjects): (11%)
- Maximum Severity: Moderate ([4]; Cohort 1, % of subjects): (61%)
- Maximum Severity: Severe ([4]; Cohort 1, % of subjects): (22%)
- At Least One Cardiovascular TEAE ([4]; Cohort 1, number of subjects): 7
- At Least One Neurological TEAE ([4]; Cohort 1, number of subjects): 4
- At Least One Non-Opioid TEAE ([4]; Cohort 1, number of subjects): 17
- At Least One Serious TEAE ([4]; Cohort 1, number of subjects): 4
- At Least One Serious and Related TEAE ([4]; Cohort 1, number of subjects): 0
- At Least One Severe and Related TEAE ([4]; Cohort 1, number of subjects): 0
- At Least One TEAE ([4]; Cohort 1, number of subjects): 17
- At Least One TEAE Leading to Study Discontinuation ([4]; Cohort 1, number of subjects): 0
- At Least One Wound Infection TEAE ([4]; Cohort 1, number of subjects): 2
- Deaths ([4]; Cohort 1, number of subjects): 0
- Maximum Relationship to Study Drug: Not Related ([4]; Cohort 1, number of subjects): 13
- Maximum Relationship to Study Drug: Related ([4]; Cohort 1, number of subjects): 4
- Maximum Severity: Mild ([4]; Cohort 1, number of subjects): 2
- Maximum Severity: Moderate ([4]; Cohort 1, number of subjects): 11
- Maximum Severity: Severe ([4]; Cohort 1, number of subjects): 4
- At Least One Cardiovascular TEAE ([4]; Cohort 2, % of subjects): (10%)
- At Least One Neurological TEAE ([4]; Cohort 2, % of subjects): (50%)
- At Least One Non-Opioid TEAE ([4]; Cohort 2, % of subjects): (95%)
- At Least One Serious TEAE ([4]; Cohort 2, % of subjects): (5%)
- At Least One Severe and Related TEAE ([4]; Cohort 2, % of subjects): (5%)
- At Least One TEAE ([4]; Cohort 2, % of subjects): (100%)
- At Least One TEAE Leading to Study Discontinuation ([4]; Cohort 2, % of subjects): (5%)
- At Least One Wound Infection TEAE ([4]; Cohort 2, % of subjects): (5%)
- Maximum Relationship to Study Drug: Not Related ([4]; Cohort 2, % of subjects): (50%)
- Maximum Relationship to Study Drug: Related ([4]; Cohort 2, % of subjects): (50%)
- Maximum Severity: Mild ([4]; Cohort 2, % of subjects): (10%)
- Maximum Severity: Moderate ([4]; Cohort 2, % of subjects): (65%)
- Maximum Severity: Severe ([4]; Cohort 2, % of subjects): (25%)
- At Least One Cardiovascular TEAE ([4]; Cohort 2, number of subjects): 2
- At Least One Neurological TEAE ([4]; Cohort 2, number of subjects): 10
- At Least One Non-Opioid TEAE ([4]; Cohort 2, number of subjects): 19
- At Least One Serious TEAE ([4]; Cohort 2, number of subjects): 1
- At Least One Serious and Related TEAE ([4]; Cohort 2, number of subjects): 0
- At Least One Severe and Related TEAE ([4]; Cohort 2, number of subjects): 1
- At Least One TEAE ([4]; Cohort 2, number of subjects): 20
- At Least One TEAE Leading to Study Discontinuation ([4]; Cohort 2, number of subjects): 1
- At Least One Wound Infection TEAE ([4]; Cohort 2, number of subjects): 1
- Deaths ([4]; Cohort 2, number of subjects): 0
- Maximum Relationship to Study Drug: Not Related ([4]; Cohort 2, number of subjects): 10
- Maximum Relationship to Study Drug: Related ([4]; Cohort 2, number of subjects): 10
- Maximum Severity: Mild ([4]; Cohort 2, number of subjects): 2
- Maximum Severity: Moderate ([4]; Cohort 2, number of subjects): 13
- Maximum Severity: Severe ([4]; Cohort 2, number of subjects): 5
- Constant-Murley score decreased from baseline ([5]; 6-month follow-up): (0%)
- Constant-Murley score, follow-up, mean ([5]; 6-month follow-up): 65.6
- Shoulder MRI: Improved compared with pre-surgical MRI ([5]; 6-month follow-up): (24.0%)
- Shoulder MRI: No change compared with pre-surgical MRI ([5]; 6-month follow-up): (36.0%)
- Shoulder MRI: Worsened compared with pre-surgical MRI ([5]; 6-month follow-up): (40%)
- Adverse reaction: Electrocardiogram T wave inversion ([5]; Table 4.1, Study 1): 0%
- Adverse reaction: Headache ([5]; Table 4.1, Study 1): 1 (3.4%)
- Adverse reaction: Hypoesthesia ([5]; Table 4.1, Study 1): 1 (3.4%)
- Adverse reaction: Pruritus generalized ([5]; Table 4.1, Study 1): 0%
- All TEAEs ([5]; safety population): 37.9%
- TEAE: Alanine aminotransferase increased ([5]; safety population): 0.0%
- TEAE: Cardiac disorders ([5]; safety population): 10.3%
- TEAE: Gastrointestinal disorders ([5]; safety population): 3.4%
- TEAE: General disorders and administration site conditions ([5]; safety population): 0.0%
- TEAE: Headache ([5]; safety population): 3.4%
- TEAE: Injury, poisoning and procedural complications ([5]; safety population): 0.0%
- TEAE: Investigations ([5]; safety population): 6.9%
- TEAE: Musculoskeletal and connective tissue disorders ([5]; safety population): 6.9%
- TEAE: Musculoskeletal pain ([5]; safety population): 6.9%
- TEAE: Nausea ([5]; safety population): 3.4%
- TEAE: Nervous system disorders ([5]; safety population): 13.8%
- TEAE: Respiratory, thoracic and mediastinal disorders ([5]; safety population): 6.9%
- TEAE: Skin and subcutaneous tissue disorders ([5]; safety population): 6.9%
- Tmax Median [6]: 1 h
